Among the test systems are BT-549 breast; HCT-116 colon; A549 NSCLC; MDA-N; EKVX NSCLC; A498 renal; SW-620 colon; SF-295 CNS; RXF 393 renal; SK-MEL-5 melanoma; PC-3 prostate; KM12 colon; SF-268 CNS; CAKI-1 renal; HCC-2998 colon; SNB-75 CNS.
Holding throughout (assay): growth of human tumour cells (NCI), 48 h

Molecules are shown by their SMILES.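 Step 1: Grow cells in 96-well plates. Step 2: Expose to compound for 48 hours at 5 concentrations. Step 3: Interpolate endpoints linearly; if unreached, use highest concentration. GI50 = concentration required for 50% inhibition of growth. Definition used: TGI = concentration required for complete inhibition of growth.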

As for `C[C@H]1[C@H](C)CC[C@]2(C)CC[C@]3(C)C(=C[C@@H](O)[C@@H]4[C@@]5(C)[C@H](O)[C@@H](O)[C@H](O)C(C)(C)[C@@H]5CC[C@]43C)[C@H]12`, the TGI in the experiment on BT-549 breast, in the experiment on HCT-116 colon, in the experiment on A549 NSCLC, in the experiment with MDA-N, in the experiment on EKVX NSCLC and in the experiment with A498 renal was more than 100 µM in each case. Besides, the TGI with SW-620 colon, with SF-295 CNS, in the experiment on RXF 393 renal, in the experiment with SK-MEL-5 melanoma, in the experiment with PC-3 prostate and in the experiment with KM12 colon was more than 100 µM each time. The TGI with SF-268 CNS and in the experiment with CAKI-1 renal was more than 100 µM each time. The GI50 in the experiment on EKVX NSCLC was 22.1 nM; in the experiment on RXF 393 renal, 361 nM.

`O=C(C(=O)N1CCc2ccccc21)c1c[nH]c2ccccc12`: the TGI with BT-549 breast, in the experiment with HCT-116 colon, in the experiment with A549 NSCLC, in the experiment with HCC-2998 colon, in the experiment with MDA-N and in the experiment on EKVX NSCLC was more than 10 µM throughout. Also, the TGI in the experiment on SNB-75 CNS, with SW-620 colon, with SF-295 CNS, in the experiment on RXF 393 renal, with SK-MEL-5 melanoma and in the experiment with PC-3 prostate was more than 10 µM throughout. Also, the TGI in the experiment with KM12 colon, in the experiment with SF-268 CNS and with CAKI-1 renal was more than 10 µM throughout.

Regarding `COc1ccc2c(c1C)C(=O)C(O)(CC=C(C)C)O2` (configuration not stated), the TGI with BT-549 breast, in the experiment on HCT-116 colon, with A549 NSCLC, in the experiment on HCC-2998 colon, in the experiment with MDA-N and in the experiment on EKVX NSCLC was more than 100 µM in each case. Further, the TGI in the experiment on SNB-75 CNS, in the experiment with A498 renal, with SW-620 colon, in the experiment on SF-295 CNS, in the experiment on SK-MEL-5 melanoma and in the experiment with PC-3 prostate was more than 100 µM throughout. Also, the TGI in the experiment on KM12 colon, with SF-268 CNS and in the experiment with CAKI-1 renal was more than 100 µM each time.

For the compound `COc1ccc2c(c1)CN1C(=N2)CSC1c1cc([N+](=O)[O-])ccc1Cl` (configuration not stated), the TGI is more than 100 µM in the experiment on BT-549 breast; more than 100 µM with HCT-116 colon; more than 100 µM with A549 NSCLC; 58.7 µM in the experiment on HCC-2998 colon; more than 100 µM with MDA-N; more than 100 µM in the experiment on EKVX NSCLC. Besides, the TGI in the experiment with SNB-75 CNS, in the experiment with SW-620 colon, in the experiment with SF-295 CNS, in the experiment on RXF 393 renal, in the experiment with SK-MEL-5 melanoma and in the experiment on PC-3 prostate was more than 100 µM in each case. For the same compound, the TGI with KM12 colon, in the experiment on SF-268 CNS and with CAKI-1 renal was more than 100 µM each time.

For the compound `NS(=O)(=O)c1ccc(-n2c(-c3cccs3)nc3ccc(I)cc3c2=O)cc1`, the TGI was 37.9 µM with BT-549 breast; 31 µM in the experiment with HCT-116 colon; 41.5 µM in the experiment with A549 NSCLC; 39.9 µM in the experiment on HCC-2998 colon; more than 100 µM in the experiment on MDA-N; 54.3 µM in the experiment with EKVX NSCLC. Moreover, the TGI was 87.4 µM in the experiment with SNB-75 CNS; more than 100 µM in the experiment with SW-620 colon; 75.8 µM in the experiment on SF-295 CNS; 88.9 µM in the experiment with RXF 393 renal; 47.1 µM in the experiment on SK-MEL-5 melanoma; 81.9 µM with PC-3 prostate. The TGI in the experiment with KM12 colon was found to be 59.3 µM; in the experiment with SF-268 CNS, 86.8 µM; in the experiment on CAKI-1 renal, 36.6 µM.

On to `COC(=O)C1=C(C)NC(C)=C(C(=O)OC)C1c1ccc(/[N+]([O-])=C/c2ccccc2)cc1`, for which the TGI was 40.1 µM in the experiment on BT-549 breast; 30 µM with HCT-116 colon; more than 100 µM in the experiment on A549 NSCLC; more than 100 µM in the experiment on HCC-2998 colon; more than 100 µM in the experiment on MDA-N; more than 100 µM with EKVX NSCLC. Further, the TGI in the experiment with SNB-75 CNS was more than 100 µM; in the experiment with SW-620 colon it was 35.5 µM; in the experiment on SF-295 CNS it was more than 100 µM; with RXF 393 renal, 41.1 µM; in the experiment on SK-MEL-5 melanoma, more than 100 µM; in the experiment with PC-3 prostate, more than 100 µM. Besides, the values for the TGI in the experiment on KM12 colon, in the experiment on SF-268 CNS and in the experiment on CAKI-1 renal were more than 100 µM, more than 100 µM and 35 µM, respectively.

For `C/C(=N\Nc1cc(CN2CCCC2)c(-c2ccc(Cl)cc2)nn1)C(=O)O`, the TGI in the experiment with BT-549 breast, in the experiment with HCT-116 colon, with A549 NSCLC, with MDA-N, with EKVX NSCLC and with SNB-75 CNS was more than 100 µM throughout. Moreover, the TGI with A498 renal, in the experiment with SW-620 colon, in the experiment with SF-295 CNS, with RXF 393 renal, in the experiment with SK-MEL-5 melanoma and in the experiment with PC-3 prostate was more than 100 µM each time. The TGI in the experiment on KM12 colon, in the experiment with SF-268 CNS and in the experiment on CAKI-1 renal was more than 100 µM in each case.

On to `CC1(C)c2ccccc2C(=O)C12CCC(=O)CC2`, for which the TGI with BT-549 breast, with HCT-116 colon, in the experiment with A549 NSCLC, with HCC-2998 colon, in the experiment with MDA-N and with EKVX NSCLC was more than 100 µM each time. Further, the TGI in the experiment with SNB-75 CNS is more than 100 µM; in the experiment on SW-620 colon, more than 100 µM; in the experiment with SF-295 CNS, more than 100 µM; in the experiment on RXF 393 renal, 96 µM; in the experiment on PC-3 prostate, more than 100 µM; in the experiment on KM12 colon, more than 100 µM. In addition, the TGI in the experiment with SF-268 CNS and in the experiment on CAKI-1 renal was more than 100 µM throughout.

Regarding `COc1cccc(CCn2c(N)c(-c3ccccc3)c3ccc([N+](=O)[O-])cc3c2=O)c1`, the TGI with BT-549 breast is 4.3 µM; in the experiment on HCT-116 colon it was 10 µM; in the experiment with A549 NSCLC, 42 µM; with HCC-2998 colon, 24.8 µM; in the experiment with MDA-N, 43.7 µM; in the experiment with EKVX NSCLC, 24.8 µM. Further, the TGI in the experiment on SNB-75 CNS is 11.1 µM; in the experiment on A498 renal it was 5.34 µM; in the experiment on SW-620 colon, more than 85.6 µM; in the experiment on SF-295 CNS, 22.7 µM; with SK-MEL-5 melanoma it was 19.3 µM; in the experiment on PC-3 prostate, more than 79 µM. The TGI in the experiment on KM12 colon is 16 µM; with SF-268 CNS, 53.7 µM; with CAKI-1 renal it was 16.7 µM.

For `c1cc(-c2ncc(-c3ccc4c(c3)CCCO4)o2)ccn1`, the TGI is 53.3 µM in the experiment with BT-549 breast; 39.3 µM in the experiment with HCT-116 colon; more than 100 µM with A549 NSCLC; 23.1 µM in the experiment with MDA-N; more than 100 µM in the experiment with EKVX NSCLC; 53.5 µM in the experiment with SNB-75 CNS. The TGI in the experiment on A498 renal is 59.6 µM; in the experiment with SF-295 CNS it was more than 100 µM; in the experiment on RXF 393 renal, more than 100 µM; in the experiment on SK-MEL-5 melanoma it was 21.2 µM; in the experiment with PC-3 prostate it was 46.5 µM; in the experiment with SF-268 CNS, 86.3 µM. The compound also had a TGI with CAKI-1 renal of more than 100 µM.

For the compound `Cc1cccc2c1[C@]13OC(C)[C@]4(C)CC5OC(=O)[C@@]1(C)[C@@H]5[C@]34C(=O)O2` (some centres not stated), the TGI with BT-549 breast, in the experiment with HCT-116 colon, in the experiment with A549 NSCLC, with HCC-2998 colon, in the experiment on MDA-N and in the experiment with EKVX NSCLC was more than 100 µM throughout. The TGI with SNB-75 CNS, in the experiment on A498 renal, with SW-620 colon, in the experiment on SF-295 CNS, in the experiment with SK-MEL-5 melanoma and in the experiment with PC-3 prostate was more than 100 µM in each case. Moreover, the TGI in the experiment on KM12 colon, in the experiment with SF-268 CNS and in the experiment with CAKI-1 renal was more than 100 µM each time.

With `Cc1cccc(/C=N/NC(=S)NCCc2ccccn2)n1`, the TGI with BT-549 breast, in the experiment on HCT-116 colon, in the experiment with A549 NSCLC, with HCC-2998 colon, in the experiment with MDA-N and in the experiment with EKVX NSCLC was more than 100 µM each time. The TGI with SNB-75 CNS is 75 µM; with A498 renal it was 87.5 µM; with SW-620 colon it was more than 100 µM; in the experiment with SF-295 CNS, more than 100 µM; in the experiment on SK-MEL-5 melanoma, more than 100 µM; in the experiment on PC-3 prostate, more than 100 µM. Besides, the TGI with KM12 colon, in the experiment on SF-268 CNS and in the experiment with CAKI-1 renal was more than 100 µM each time.

Regarding `Cc1cc(C)cc(C(=N)c2ccccc2Cc2cccc3ccccc23)c1`, the TGI in the experiment with BT-549 breast is more than 100 µM; with HCT-116 colon, 23.2 µM; with A549 NSCLC it was 42.4 µM; with MDA-N it was 54.2 µM; in the experiment on EKVX NSCLC it was 46.4 µM; with A498 renal, 87.3 µM. Further, the TGI was 31.8 µM in the experiment on SW-620 colon; 25.5 µM in the experiment with SF-295 CNS; 31.9 µM in the experiment on RXF 393 renal; 31.9 µM in the experiment on SK-MEL-5 melanoma; more than 100 µM with PC-3 prostate; 24 µM with KM12 colon. Also, the TGI with SF-268 CNS was 34.9 µM; in the experiment on CAKI-1 renal, 72.9 µM.

As for `CCC1OC2C(CC=C(C)C)=C3OC(C)(O)C(C)(CC)C(OC(=O)c4ccccc4)C3=C3OC(=O)C=C1C32` (configuration not stated), the TGI is 47.7 µM in the experiment on BT-549 breast; more than 100 µM in the experiment on HCT-116 colon; more than 100 µM in the experiment with A549 NSCLC; 48.4 µM in the experiment with HCC-2998 colon; 44.4 µM with MDA-N; more than 100 µM with EKVX NSCLC. Further, the TGI was more than 100 µM in the experiment with SNB-75 CNS; more than 100 µM in the experiment with A498 renal; more than 100 µM in the experiment with SW-620 colon; more than 100 µM in the experiment on SF-295 CNS; 43.7 µM with SK-MEL-5 melanoma; more than 100 µM with PC-3 prostate. Moreover, the TGI with KM12 colon, with SF-268 CNS and in the experiment with CAKI-1 renal was more than 100 µM each time.

Values taken from PubChem BioAssay (NCI).
